Results: patent US8569484B2, “Heterocyclic urea derivatives and methods of use thereof” (Astrazeneca AB, priority 2009, dated 2013)
Converted amounts (≈) assume the structure as drawn.

Tested on: S. aureus
Assay: Bacterial susceptibility testing in liquid media (MIC)
Type: cell-based
Conditions: Staphylococcus aureus; against S. aureus; lowest concentration able to reduce growth by 80% or more
Text: Compounds may be tested for antimicrobial activity by susceptibility testing in liquid media. Compounds may be dissolved in dimethylsulfoxide and tested in 10 doubling dilutions in the susceptibility assays. The organisms used in the assay may be grown overnight on suitable agar media and then suspended in a liquid medium appropriate for the growth of the organism. The suspension can be a 0.5 McFarland and a further 1 in 10 dilution can be made into the same liquid medium to prepare the final organism suspension in 100 μL. Plates can be incubated under appropriate conditions at 37° C. for 24 hrs prior to reading. The Minimum Inhibitory Concentration (MIC) may be determined as the lowest drug concentration able to reduce growth by 80% or more.

SMILES | MIC
CCNC(=O)Nc1cc(-c2nc(C(F)(F)F)cs2)c(-c2cnc3c(c2)c(=O)c(C(=O)O)cn3CCO)cn1 [Example 10, 6-{6-[(ethylcarbamoyl)amino]-4-[4-(trifluoromethyl)-1,3-thiazol-2-yl]pyridin-3-yl}-1-(2-hydroxyethyl)-4-oxo-1,4-dihydro-1,8-naphthyridine-3-carboxylic acid] | 0.55 µM (≈ 0.302 µg/mL)

Target: S. aureus GyrB ATPase (Staphylococcus aureus, UniProt P0A0K8)
Assay: S. aureus GyrB ATPase inhibition (ammonium molybdate/malachite green phosphate detection)
Type: biochemical
Conditions: 1 μM compound; S. aureus GyrB ATPase; read-out: Percent Inhibition (1 μM)
Procedure: S. aureus GyrB ATPase Inhibition Activity: Compounds may be tested for inhibition of S. aureus GyrB ATPase activity using an ammonium molybdate/malachite green-based phosphate detection assay (Lanzetta, P. A., L. J. Alvarez, P. S. Reinach, and O. A. Candia, 1979, 100: 95-97). Assays can be performed in multiwell plates in 30 μl reactions containing: 50 mM Hepes buffer pH 7.5, 75 mM ammonium acetate, 8.0 mM magnesium chloride, 0.5 mM ethylenediaminetetraacetic acid, 5% glycerol, 1.0 mM 1,4-Dithio-DL-threitol, 200 nM bovine serum albumin, 1.0 μg/ml sheared salmon sperm DNA, 250 pM E. coli GyrA, 250 pM S. aureus GyrB, 250 μM ATP, and compound in dimethylsulfoxide. Reactions can be quenched with 30 μl of ammonium molybdate/malachite green detection reagent containing 1.2 mM malachite green hydrochloride, 8.5 mM ammonium molybdate tetrahydrate, and 1 M hydrochloric acid. Plates can be read in an absorbance plate reader at 650 nm and percent inhibition values can be calculated using dimethylsulfoxide (2%)-containing reactions as 0% inhibition and EDTA-containing ([…]) reactions as 100% inhibition controls. An IC50 measurement of compound potency for each compound can be determined from reactions performed in the presence of 10 different compound concentrations.

Sequence of S. aureus GyrB ATPase (P0AES4 whole entry): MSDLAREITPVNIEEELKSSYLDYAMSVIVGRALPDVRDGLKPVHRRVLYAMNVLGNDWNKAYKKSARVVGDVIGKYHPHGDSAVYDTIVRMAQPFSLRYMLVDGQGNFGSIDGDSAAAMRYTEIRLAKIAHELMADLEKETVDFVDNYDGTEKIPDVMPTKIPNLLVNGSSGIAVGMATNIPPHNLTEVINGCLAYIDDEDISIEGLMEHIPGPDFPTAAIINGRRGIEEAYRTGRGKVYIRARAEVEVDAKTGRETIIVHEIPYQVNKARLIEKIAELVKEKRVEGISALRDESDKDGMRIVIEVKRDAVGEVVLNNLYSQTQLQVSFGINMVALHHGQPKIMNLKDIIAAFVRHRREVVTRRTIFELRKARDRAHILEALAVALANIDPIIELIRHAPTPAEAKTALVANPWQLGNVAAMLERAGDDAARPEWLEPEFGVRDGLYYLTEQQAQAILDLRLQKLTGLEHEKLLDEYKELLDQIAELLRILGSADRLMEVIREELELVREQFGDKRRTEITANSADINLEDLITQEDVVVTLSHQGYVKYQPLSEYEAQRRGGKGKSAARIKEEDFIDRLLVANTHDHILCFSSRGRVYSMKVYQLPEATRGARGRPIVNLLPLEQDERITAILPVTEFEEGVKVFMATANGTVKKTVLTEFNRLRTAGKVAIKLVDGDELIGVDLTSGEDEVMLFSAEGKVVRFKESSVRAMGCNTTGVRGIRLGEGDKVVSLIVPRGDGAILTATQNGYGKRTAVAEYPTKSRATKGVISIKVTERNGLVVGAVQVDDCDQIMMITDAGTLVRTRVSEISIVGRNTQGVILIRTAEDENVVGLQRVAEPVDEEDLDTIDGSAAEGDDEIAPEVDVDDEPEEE
Sequence of S. aureus GyrB ATPase (P0A0K8 whole entry): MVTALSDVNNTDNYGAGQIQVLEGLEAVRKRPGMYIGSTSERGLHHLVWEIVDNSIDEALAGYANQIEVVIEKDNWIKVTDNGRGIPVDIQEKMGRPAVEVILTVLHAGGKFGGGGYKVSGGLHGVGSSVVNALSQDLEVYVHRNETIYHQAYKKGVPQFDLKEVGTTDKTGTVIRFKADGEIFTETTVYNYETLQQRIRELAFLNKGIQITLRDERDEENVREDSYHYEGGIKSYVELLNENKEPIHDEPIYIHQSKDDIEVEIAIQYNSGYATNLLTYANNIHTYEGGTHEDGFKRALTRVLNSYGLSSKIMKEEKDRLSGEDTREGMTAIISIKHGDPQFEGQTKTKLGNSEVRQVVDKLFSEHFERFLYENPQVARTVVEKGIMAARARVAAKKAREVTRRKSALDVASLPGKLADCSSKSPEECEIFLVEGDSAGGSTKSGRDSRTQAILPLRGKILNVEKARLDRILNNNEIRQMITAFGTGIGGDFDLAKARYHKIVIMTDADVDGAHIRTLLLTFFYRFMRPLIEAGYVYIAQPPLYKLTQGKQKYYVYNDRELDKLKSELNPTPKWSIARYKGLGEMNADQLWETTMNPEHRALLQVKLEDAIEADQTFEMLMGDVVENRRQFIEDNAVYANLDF

SMILES | inhibition at 1 µM
CCNC(=O)Nc1cc(-c2nc(C(F)(F)F)cs2)c(-c2cnc3c(c2)c(=O)c(C(=O)O)cn3CCO)cn1 [Example 10, 6-{6-[(ethylcarbamoyl)amino]-4-[4-(trifluoromethyl)-1,3-thiazol-2-yl]pyridin-3-yl}-1-(2-hydroxyethyl)-4-oxo-1,4-dihydro-1,8-naphthyridine-3-carboxylic acid] | 93%
CCNC(=O)Nc1cc(-c2nc(-c3ccccc3)cs2)c(-c2cc3c(=O)c(C(=O)O)cn([C@@H]4CCCN(CCN5CCOCC5)C4)c3cn2)cn1 [Example 64] | 100%
CCNC(=O)Nc1cc(-c2nc(-c3ccccc3)cs2)c(-c2cc3c(=O)c(C(=O)O)cn(Cc4cn(C)cn4)c3cn2)cn1 [Example 65] | 98%
CCNC(=O)Nc1cc(-c2nc(C(F)(F)F)cs2)c(-c2cc3c(=O)c(C(=O)O)cn(C(C)(C)C)c3cn2)cn1 [Example 66] | 106%
CCNC(=O)Nc1cc(-c2nc(C(F)(F)F)cs2)c(-c2cc3c(=O)c(C(=O)O)cn(CCN4CCCC4)c3cn2)cn1 [Example 67] | 93%
CCNC(=O)Nc1cc(-c2nc(C(F)(F)F)cs2)c(-c2cc3c(=O)c(C(=O)O)cn(CC)c3cn2)cn1 [Example 68] | 110%
CCNC(=O)Nc1cc(-c2nc(C(F)(F)F)cs2)c(-c2cc3c(=O)c(C(=O)O)cn(CCN4CCOCC4)c3cn2)cn1 [Example 69] | 103%
CCNC(=O)Nc1cc(-c2nc(C(F)(F)F)cs2)c(-c2cc3c(=O)c(C(=O)O)cn(C4CN(C)C4)c3cn2)cn1 [Example 70] | 102%
CCNC(=O)Nc1cc(-c2nc(C(F)(F)F)cs2)c(-c2cc3c(=O)c(C(=O)O)cn([C@H](CO)C(C)(C)C)c3cn2)cn1 [Example 71] | 103%
CCNC(=O)Nc1cc(-c2nc(C(F)(F)F)cs2)c(-c2cc3c(=O)c(C(=O)O)cn(Cc4ccncc4)c3cn2)cn1 [Example 72] | 105%
CCCN1CC[C@H](Cn2cc(C(=O)O)c(=O)c3cc(-c4cnc(NC(=O)NCC)cc4-c4nc(C(F)(F)F)cs4)ncc32)C1 [Example 73] | 108%
CCNC(=O)Nc1cc(-c2nc(C(F)(F)F)cs2)c(-c2cc3c(=O)c(C(=O)O)cn(C[C@@H]4CCN(CC)C4)c3cn2)cn1 [Example 74] | 100%
CCNC(=O)Nc1cc(-c2nc(-c3cnn(C)c3)cs2)c(-c2cc3c(=O)c(C(=O)O)cn(C4CC4)c3cn2)cn1 [Example 75] | 108%
CCNC(=O)Nc1cc(-c2nc(-c3cnn(C)c3)cs2)c(-c2cc3c(=O)c(C(=O)O)cn(Cc4cn(C)cn4)c3cn2)cn1 [Example 76, 6-(6-(3-ethylureido)-4-(4-(1-methyl-1H-pyrazol-4-yl)thiazol-2-yl)pyridin-3-yl)-1-((1-methyl-1H-imidazol-4-yl)methyl)-4-oxo-1,4-dihydro-1,7-naphthyridine-3-carboxylic acid] | 109%
CCNC(=O)Nc1cc(-c2nc(C(F)(F)F)cs2)c(-c2cc3c(=O)c(C(=O)O)cn(CC)c3nc2N2CCC(N)C2)cn1 (centres unmarked) [Example 77] | 105%
CCNC(=O)Nc1cc(-c2nc(C(F)(F)F)cs2)c(-c2cc3c(=O)c(C(=O)O)cn([C@H](CO)C(C)(C)C)c3nc2N2CCC(N)C2)cn1 (stereo partly drawn) [Example 78, 7-(3-aminopyrrolidin-1-yl)-6-(6-(3-ethylureido)-4-(4-(trifluoromethyl)thiazol-2-yl)pyridin-3-yl)-1-((S)-1-hydroxy-3,3-dimethylbutan-2-yl)-4-oxo-1,4-dihydro-1,8-naphthyridine-3-carboxylic acid] | 98%
